Key:
Type in all cases: cell-based, human
MCF-7 Nod2 cells [1] = assay: Apoptosis (PI, flow cytometry) in MCF-7 cells over-expressing Nod2; conditions: 20 ug/ml plus CHX, 48 h
Protocol: (§1) In FIG. 5A, MCF-7 Blasto, MCF-7 Nod1 and MCF-7 Nod2 were treated with the NOD1 ligand γTriDAP or the Nod2 ligand muramyl dipeptide (MDP)(20 ug/ml each) in the presence or absence of CHX for 48 h. Cells were then incubated with PI and apoptotic cell death was measured by flow cytometry. […] In FIG. 5B, expression of NOD1 and NOD2 was confirmed by Western blot analysis using anti-Myc antibodies for detection of the recombinant proteins. […] MCF-7 Blasto, MCF-7 Nod1 and MCF-7 Nod2 cells were stimulated with γTriDAP or MDP in the presence or absence of CHX (0.5 ug/ml) for 24 h. Cell supernatants were then harvested and assayed for IL-8 secretion.
Cell viability assays. Propidium iodide exclusion assay: Cells were stimulated as indicated for 2 days. […] The extent of cell death was analyzed with a FACSCalibur flow cytometer (Becton Dickinson, Mountain View, Calif.). […] Cells were fixed in 4% paraformaldehyde and examined by fluorescence microscopy.
(§2) Experiments were also performed to ascertain whether activation of Nod2 by its specific activator, muramyl dipeptide (MDP), would initiate apoptosis in parental MCF-7 cells or in MCF-7 cells over-expressing Nod2 (MCF-7 Nod2). Thus, γTriDAP or MDP were added to each of these lines and apoptosis (FIG. 5A) and IL-8 production (FIG. 5C) were measured. […]

MCF-7 Nod2 cells [2] = assay: IL-8 secretion (ELISA) in MCF-7 Nod2 cells; conditions: 24 h
Protocol: as §1
IL-8 ELISA. Concentrations of IL-8 in the culture supernatants of transfected HeLa cells were measured by ELISA using 96-well Immunlon plates (Dynatech Laboratories, Chantilly, Va.). ELISA was performed using the mAb MAB208 for capture and a biotinylated polyclonal rabbit anti-human IL-8 Ab (R&D Systems, Minneapolis, Minn.) followed by streptavidin HRP for detection.
as §2

[3] = system: MCF-7 C20 cells with Nod2; assay: Apoptosis in MCF-7 C20 cells complemented with Nod2; conditions: MCF-7 C20 complemented with Nod2 (data not shown)
[4] = system: MCF-7 cells expressing wild type RIP2, RIP2 KD or RIP2ΔCARD; assay: Apoptosis (PI, flow cytometry) in MCF-7 cells stably expressing RIP2 constructs; conditions: 20 μg/ml, CHX 3 μg/ml, 48 hr
Protocol: FIG. 13A-D illustrate that RIP2 is an important component of the Nod1 apoptotic pathway. […] MCF-7 cells were stably transfected with Myc-Nod1, Myc-RIP2 (wild type), Myc-RIP2 KD, and Myc-RIP2 ΔCARD. Test cells were then treated with γTriDAP, αTriDAP and MDP (20 μg/ml each) in the presence or absence of CHX (3 μg/ml) for 48 hr, while control cells were not treated with these agents. Cells were then incubated with propidium iodide (PI) and apoptotic cell death was measured by flow cytometry. FIG. 13B illustrates the effect of TNF upon apoptosis in the same MCF-7 cell lines described in FIG. 13A. These cells lines were treated with TNF (10 ng/ml) for 18 hr and apoptotic cell death was assessed as described for FIG. 13A. TNF increased apoptosis in all the cell lines tested. […] Cells were incubated in the presence of increasing concentrations of γTriDAP or MDP in the presence of CHX for 48 hr and apoptotic cell death was assessed as described for FIG. 13A. FIG. 13D illustrates IL-8 secretion by MCF-7 Blasto, MCF-7 Nod1 and MCF-7 RIP2 wild type cells after stimulation with γTriDAP in the presence of CHX ([…]) or TNF. […]
Cell viability assays. […] The extent of cell death was analyzed with a FACSCalibur flow cytometer (Becton Dickinson, Mountain View, Calif.). […] Cells were fixed in 4% paraformaldehyde and examined by fluorescence microscopy. […]

For muramyl dipeptide [MDP], the apoptosis (MCF-7 Nod2 cells [1]) was “did not undergo increased apoptosis”, the IL-8 secretion (MCF-7 Nod2 cells [2]) was “did result in IL-8 secretion” and the apoptosis [3] was “did not result in apoptosis”. The apoptosis ([4]; cells expressing RIP2 KD) was “effective at inducing high levels of apoptosis” and the apoptosis ([4]; cells expressing either wild type RIP2 or RIP2ΔCARD) was “not”.

Source: US20090028795A1, “NOD1 as an Anti-Tumor Agent” (priority 2005, published 2009)
